Drawing on PubChem BioAssay AID488870 (Broad Institute, 2010), this text covers activity change, negative = inhibition for 52 molecules.

Structures are written as SMILES. Activity calls are given as the source filed them.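 Rule for the calls: active = a drop in nitrite signal whose fitted half-maximal concentration is at most ten times the top tested dose; inconclusive = flat fit with 30 to 70% inhibition, or poor curve fit; inactive = the rest.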

This experiment is described as follows: suppression of NO production in INS-1E cells – cell-based, Griess absorbance, dry powder, set 3, dose response (AID 488870). Conditions: INS-1E cytokine-induced nitrite, Griess absorbance, 48 h; at 19.5 µM (top of the series). (In general: Griess reagent forms a coloured azo dye with nitrite.)
Take `Cc1ccc(S(=O)(=O)N(C)C[C@@H]2Oc3c(NC(=O)Nc4ccccc4)cccc3C(=O)N([C@H](C)CO)C[C@H]2C)cc1`: the activity change, negative = inhibition is 11.6% (inactive).

Consider `COc1ccc(S(=O)(=O)Nc2cccc3c2O[C@@H](CN(C)S(=O)(=O)c2ccc(OC)cc2)[C@H](C)CN([C@@H](C)CO)C3=O)cc1`, for which the activity change, negative = inhibition is -10.4% (inactive). As to `C[C@@H]1CN([C@@H](C)CO)C(=O)c2cccc(NC(=O)Nc3cccc4ccccc34)c2O[C@H]1CN(C)S(=O)(=O)c1ccc2c(c1)oc(=O)n2C`, the activity change, negative = inhibition is -7.4% (inactive).

Turning to `Cc1ccc(S(=O)(=O)N(C)C[C@@H]2Oc3c(NC(=O)Nc4cccc5ccccc45)cccc3C(=O)N([C@H](C)CO)C[C@H]2C)cc1`, the activity change, negative = inhibition is -10.1% (inactive). Regarding `COc1ccc(S(=O)(=O)N(C)C[C@@H]2Oc3c(NC(=O)Nc4cccc5ccccc45)cccc3C(=O)N([C@H](C)CO)C[C@@H]2C)cc1`, the activity change, negative = inhibition is 3.88% (inactive). Regarding `C[C@@H]1CN([C@H](C)CO)C(=O)c2cccc(NC(=O)Nc3ccc(F)cc3)c2O[C@H]1CN(C)S(=O)(=O)c1ccc(Cl)cc1`, the activity change, negative = inhibition was -5.33% (inactive). With `Cc1ccc(S(=O)(=O)N(C)C[C@@H]2Oc3c(NC(=O)Nc4ccccc4)cccc3C(=O)N([C@@H](C)CO)C[C@H]2C)cc1`, the activity change, negative = inhibition is -10.1% (inactive). For the molecule `C[C@@H]1CN([C@@H](C)CO)C(=O)c2cccc(NC(=O)Nc3cccc4ccccc34)c2O[C@H]1CN(C)S(=O)(=O)c1ccccc1`, the activity change, negative = inhibition was -19.1% (inactive). With `COc1ccc(S(=O)(=O)N(C)C[C@@H]2Oc3c(NS(=O)(=O)c4ccc(C)cc4)cccc3C(=O)N([C@@H](C)CO)C[C@H]2C)cc1`, the activity change, negative = inhibition is -5.68% (inactive).

Consider `COc1ccc(S(=O)(=O)N(C)C[C@@H]2Oc3c(NC(=O)Nc4ccc5c(c4)OCO5)cccc3C(=O)N([C@@H](C)CO)C[C@H]2C)cc1`, for which the activity change, negative = inhibition is -8.76% (inactive). `COc1ccc(S(=O)(=O)N(C)C[C@@H]2Oc3c(NC(=O)c4cnccn4)cccc3C(=O)N([C@@H](C)CO)C[C@H]2C)cc1`: the activity change, negative = inhibition is -9.05% (inactive). For the molecule `COc1ccc(S(=O)(=O)N(C)C[C@@H]2Oc3c(NC(=O)Nc4ccc(F)cc4)cccc3C(=O)N([C@H](C)CO)C[C@H]2C)cc1`, the activity change, negative = inhibition is 20.3% (inactive). Consider `C[C@@H]1CN([C@H](C)CO)C(=O)c2cccc(NC(=O)Nc3ccccc3)c2O[C@H]1CN(C)S(=O)(=O)c1ccc(Cl)cc1`, for which the activity change, negative = inhibition is 4.79% (inactive). As to `COc1ccc(S(=O)(=O)N(C)C[C@@H]2Oc3c(NC(=O)Nc4cccc5ccccc45)cccc3C(=O)N([C@@H](C)CO)C[C@H]2C)cc1OC`, the activity change, negative = inhibition is -18.5% (inactive). In the case of `C[C@@H]1CN([C@@H](C)CO)C(=O)c2cccc(NC(=O)Nc3cccc4ccccc34)c2O[C@H]1CN(C)C(=O)Nc1ccc(F)cc1`, the activity change, negative = inhibition was -13.6% (inactive). In the case of `CNC[C@@H]1Oc2c(NC(=O)Nc3cccc4ccccc34)cccc2C(=O)N([C@@H](C)CO)C[C@H]1C`, the activity change, negative = inhibition is 3.1% (inactive). With `COc1ccc(S(=O)(=O)N(C)C[C@@H]2Oc3c(NC(=O)Nc4ccccc4)cccc3C(=O)N([C@H](C)CO)C[C@H]2C)cc1`, the activity change, negative = inhibition was -11% (inactive). Regarding `C[C@@H]1CN([C@@H](C)CO)C(=O)c2cccc(NC(=O)Nc3cccc4ccccc34)c2O[C@H]1CN(C)S(=O)(=O)c1ccc(Cl)cc1`, the activity change, negative = inhibition was -22.9% (inactive). As for `C[C@@H]1CN([C@@H](C)CO)C(=O)c2cccc(NC(=O)Nc3ccccc3)c2O[C@H]1CN(C)S(=O)(=O)c1ccc(Cl)cc1`, the figure is -8% (inactive); as for `COc1ccc(S(=O)(=O)N(C)C[C@@H]2Oc3c(NC(=O)Nc4cccc5ccccc45)cccc3C(=O)N([C@@H](C)CO)C[C@@H]2C)cc1`, -1.85% (inactive); as for `C[C@@H]1CN([C@@H](C)CO)C(=O)c2cccc(NC(=O)Nc3ccc(F)cc3)c2O[C@H]1CN(C)S(=O)(=O)c1ccc(F)cc1`, -6.48% (inactive). With `COc1ccc(S(=O)(=O)N(C)C[C@@H]2Oc3c(NS(=O)(=O)c4ccc(Cl)cc4)cccc3C(=O)N([C@@H](C)CO)C[C@H]2C)cc1`, the activity change, negative = inhibition was -7.18% (inactive). Regarding `COc1ccc(S(=O)(=O)N(C)C[C@@H]2Oc3c(NC(=O)c4ccncc4)cccc3C(=O)N([C@@H](C)CO)C[C@H]2C)cc1`, the activity change, negative = inhibition is -12.3% (inactive). Consider `COc1ccc(S(=O)(=O)N(C)C[C@@H]2Oc3c(NC(=O)C4CC4)cccc3C(=O)N([C@@H](C)CO)C[C@H]2C)cc1`, for which the activity change, negative = inhibition was -4.99% (inactive). In the case of `COc1ccc(S(=O)(=O)N(C)C[C@@H]2Oc3c(NS(=O)(=O)c4ccccc4)cccc3C(=O)N([C@@H](C)CO)C[C@H]2C)cc1`, the activity change, negative = inhibition is 2.87% (inactive). Consider `COc1ccc(S(=O)(=O)N(C)C[C@@H]2Oc3c(NS(=O)(=O)c4ccc(F)cc4)cccc3C(=O)N([C@@H](C)CO)C[C@H]2C)cc1`, for which the activity change, negative = inhibition is 9.8% (inactive). As to `COc1ccc(S(=O)(=O)N(C)C[C@@H]2Oc3c(cccc3N(C)C)C(=O)N([C@@H](C)CO)C[C@H]2C)cc1`, the activity change, negative = inhibition was 4.92% (inactive). As to `COc1ccc(S(=O)(=O)N(C)C[C@@H]2Oc3c(NC(=O)Nc4c(C)noc4C)cccc3C(=O)N([C@@H](C)CO)C[C@H]2C)cc1`, the activity change, negative = inhibition is -4.75% (inactive). Turning to `COc1ccc(S(=O)(=O)N(C)C[C@H]2Oc3c(NC(=O)Nc4cccc5ccccc45)cccc3C(=O)N([C@H](C)CO)C[C@H]2C)cc1`, the activity change, negative = inhibition is -1.83% (inactive). Regarding `Cc1noc(C)c1NC(=O)N(C)C[C@@H]1Oc2c(NC(=O)Nc3cccc4ccccc34)cccc2C(=O)N([C@@H](C)CO)C[C@H]1C`, the activity change, negative = inhibition is -7.11% (inactive). On to `COc1ccc(S(=O)(=O)N(C)C[C@H]2Oc3c(NC(=O)Nc4cccc5ccccc45)cccc3C(=O)N([C@@H](C)CO)C[C@@H]2C)cc1`, for which the activity change, negative = inhibition was -9.04% (inactive). As to `COc1ccc(S(=O)(=O)N(C)C[C@@H]2Oc3c(NS(C)(=O)=O)cccc3C(=O)N([C@@H](C)CO)C[C@H]2C)cc1`, the activity change, negative = inhibition was -4.1% (inactive). Take `C[C@@H]1CN([C@@H](C)CO)C(=O)c2cccc(NC(=O)Nc3ccc(F)cc3)c2O[C@H]1CN(C)S(=O)(=O)c1ccc(Cl)cc1`: the activity change, negative = inhibition was -9.62% (inactive).

In the case of `C[C@@H]1CN([C@@H](C)CO)C(=O)c2cccc(NC(=O)Nc3cccc4ccccc34)c2O[C@H]1CN(C)C(=O)Nc1ccccc1`, the activity change, negative = inhibition was -16.1% (inactive). For the molecule `COc1ccc(NC(=O)Nc2cccc3c2O[C@@H](CN(C)S(=O)(=O)c2ccc(OC)cc2)[C@H](C)CN([C@@H](C)CO)C3=O)cc1`, the activity change, negative = inhibition is -3.9% (inactive). For `COc1ccc(S(=O)(=O)N(C)C[C@@H]2Oc3c(NC(=O)c4cc(C)nn4C)cccc3C(=O)N([C@@H](C)CO)C[C@H]2C)cc1`, the activity change, negative = inhibition is -2.17% (inactive). As to `COc1ccc(S(=O)(=O)N(C)C[C@@H]2Oc3c(NC(=O)Nc4cccc5ccccc45)cccc3C(=O)N(C(C)C)C[C@H]2C)cc1`, the activity change, negative = inhibition is -11.1% (inactive). With `C[C@@H]1CN([C@@H](C)CO)C(=O)c2cccc(NC(=O)Nc3cccc4ccccc34)c2O[C@H]1CN(C)S(C)(=O)=O`, the activity change, negative = inhibition was 9.52% (inactive). As to `C[C@@H]1CN([C@@H](C)CO)C(=O)c2cccc(NC(=O)Nc3cccc4ccccc34)c2O[C@H]1CN(C)S(=O)(=O)c1ccc2c(n1)N(C)CCO2`, the activity change, negative = inhibition is -13.9% (inactive). As for `COc1ccc(S(=O)(=O)N(C)C[C@@H]2Oc3c(NC(=O)Nc4ccc(F)cc4)cccc3C(=O)N([C@@H](C)CO)C[C@H]2C)cc1`, the figure is -7.65% (inactive); as for `C[C@@H]1CN([C@@H](C)CO)C(=O)c2cccc(NC(=O)Nc3cccc4ccccc34)c2O[C@H]1CN(C)S(=O)(=O)c1cccs1`, -14.1% (inactive); as for `C[C@@H]1CN([C@@H](C)CO)C(=O)c2cccc(NC(=O)Nc3cccc4ccccc34)c2O[C@H]1CN(C)CC1CC1`, -0.187% (inactive). Under `Cc1ccc(S(=O)(=O)N(C)C[C@@H]2Oc3c(NC(=O)Nc4ccc(F)cc4)cccc3C(=O)N([C@@H](C)CO)C[C@H]2C)cc1` stands -6.25% (inactive); under `COc1ccc(S(=O)(=O)N(C)C[C@@H]2Oc3c(NC(=O)Nc4ccccc4)cccc3C(=O)N([C@@H](C)CO)C[C@H]2C)cc1`, -7.93% (inactive). Under `COc1ccc(S(=O)(=O)N(C)C[C@@H]2Oc3c(NS(=O)(=O)c4cn(C)cn4)cccc3C(=O)N([C@@H](C)CO)C[C@H]2C)cc1` stands 4.99% (inactive); under `C[C@@H]1CN([C@@H](C)CO)C(=O)c2cccc(NS(=O)(=O)c3ccccc3)c2O[C@H]1CN(C)Cc1ccc(C(F)(F)F)cc1`, -12.5% (inactive); under `C[C@H]1CN([C@@H](C)CO)C(=O)c2cccc(NC(=O)NC3CCCCC3)c2O[C@@H]1CN(C)S(C)(=O)=O`, 3.92% (inactive). In the case of `C[C@@H]1CN([C@@H](C)CO)C(=O)c2cccc(NC(=O)Nc3ccccc3)c2O[C@H]1CN(C)S(=O)(=O)c1ccc(F)cc1`, the activity change, negative = inhibition is -6.44% (inactive). Turning to `COc1ccc(S(=O)(=O)N(C)C[C@@H]2Oc3c(NC(=O)c4cccc5ccccc45)cccc3C(=O)N([C@@H](C)CO)C[C@H]2C)cc1`, the activity change, negative = inhibition was -13.8% (inactive). `COc1ccc(S(=O)(=O)N(C)C[C@@H]2Oc3c(NC(=O)C4CCOCC4)cccc3C(=O)N([C@@H](C)CO)C[C@H]2C)cc1`: the activity change, negative = inhibition is 5.9% (inactive). With `C[C@@H]1CN([C@@H](C)CO)C(=O)c2cccc(NC(=O)Nc3cccc4ccccc34)c2O[C@H]1CN(C)S(=O)(=O)c1cn(C)cn1`, the activity change, negative = inhibition is -10.7% (inactive). Consider `COc1ccc(S(=O)(=O)N(C)C[C@@H]2Oc3c(NC(=O)c4ccc(-c5nccs5)cc4)cccc3C(=O)N([C@@H](C)CO)C[C@H]2C)cc1`, for which the activity change, negative = inhibition was -2.29% (inactive).
